In patent US9101613B2, “Methods for treating neurological disease” (Neurim Pharmaceuticals (1991) Ltd., priority 2006, dated 2015):

What was measured:
C57BL/6 mice [1] = assay: MPTP mouse model of Parkinson's disease, pole test; format: in vivo
Description: (§1) Three-month-old male C57BL/6 mice were housed in groups of 5 animals per cage (50 cm×25 cm×20 cm) in a temperature- and humidity-controlled environment with ad libitum access to food and water. Animals were maintained on a 12 hr light/dark schedule, with lights on at 7 A.M.
(§2) Six groups of mice were used: (1) the control mice treated with saline and vehicle (n=10), (2) the N-[2-(5-methoxy-indol-3-yl)-ethyl]-comanilamide control mice treated with saline and N-[2-(5-methoxy-indol-3-yl)-ethyl]-comanilamide at 100 or 200 mg/kg (n=5, respectively), (3) the MPTP mice treated with MPTP and vehicle (n=10) and (4) the N-[2-(5-methoxy-indol-3-yl)-ethyl]-comanilamide-treated MPTP mice treated with MPTP and N-[2-(5-methoxy-indol-3-yl)-ethyl]-comanilamide at 100 or 200 mg/kg (n=10, respectively). Mice received daily (i.p.) injections of saline or MPTP (30 mg/kg/day) dissolved in physiological saline for five consecutive days to induce Parkinsonism. N-[2-(5-methoxy-indol-3-yl)-ethyl]-comanilamide or vehicle was administered (i.p.) once per day for 17 days, starting on the first day of MPTP injections. Open field test, pole test, forepaw stride length test and traction test were conducted on day 14, 15, 16 and 17 after the first injections of MPTP, respectively.
In the pole test, the mouse was placed head upward on the top of a vertical wooden rough-surfaced pole (diameter: 1 cm, height: 50 cm), then allowed to descend five times. Each mouse was habituated to the apparatus two sessions (one session per day) before the day of first MPTP injections. The total time until the mouse reached the floor with its four paws was recorded (T-total) as well as the time needed for the mouse to turn completely head downward (T-turn). For each session of five descents, the best performance was kept for the T-turn and T-total. If the mouse was unable to turn completely downwards, fell or slipped down, the default value of 20 s was taken into account.

C57BL/6 mice [2] = assay: MPTP mouse model of Parkinson's disease, striatal dopamine, DOPAC and HVA levels (HPLC); format: in vivo
Description: as §1, §2
To measure striatal dopamine, DOPAC and HVA levels, mice were sacrificed at day 17 after the final injection of MPTP. The striata were dissected and stored at −70° C. before assays. Striatal dopamine levels were measured by high performance liquid chromatography (HPLC) with electrochemical detection.

[3] = tested on: rat primary cortical neurons; assay: Neurite outgrowth in rat primary cortical neurons; format: cell-based
Protocol: The aim of this study was to assess the potential effect of N-[2-(5-methoxy-indol-3-yl)-ethyl]-comanilamide (100 nM) after 5 days of culture on neurite outgrowth in rat primary cortical neurons. The study used three separate cultures (n=6 wells per condition); the mean value of the 3 cultures (+/−sem) was calculated.
Rat cortical neurons were cultured as described by Singer et al., 1999. Briefly pregnant female rats of 15 days gestation are killed by cervical dislocation (Rats Wistar; Janvier) and the fetuses removed from the uterus. The cortex are removed and placed in ice-cold medium of Leibovitz (L15; Invitrogen) containing 1% of Penicillin-Streptomycin (PS; Invitrogen) and 1% of bovine serum albumin (BSA; Sigma). Cortex are dissociated by trypsinisation for 20 min at 37° C. (Trypsin EDTA 1×; Invitrogen) diluted in PBS without calcium and magnesium. The reaction is stopped by the addition of Dulbecco's modified Eagle's medium (DMEM; Invitrogen) containing DNAase I grade II (0.1 mg/ml; Roche Diagnostic) and 10% of fetal calf serum (FCS; Invitrogen). Cells are then mechanically dissociated by 3 passages through a 10 ml pipette. Cells are then centrifuged at 180×g for 10 min at 10° C. The supernatant is discarded and the cells of pellet are re-suspended in a defined culture medium consisting of Neurobasal (Invitrogen) supplemented with B27 (2%; Invitrogen), L-glutamine (0.2 mM; Invitrogen) and 1% of PS solution with 10 ng/ml of Brain-derived neurotrophic factor (BDNF).
For the neurite outgrowth assay, the cells are seed with test compound A (at 100 nM) and reference compound (BDNF at 10 ng/ml used as reference control) on defined medium (Neurobasal supplemented with 2% of B27, 0.2 mM of L-glutamine and 1% of PS).
The cultures were done (a) without BDNF in order to analyse the neurotrophic effect of compounds alone and (b) with low BDNF concentration (0.5 ng/ml) in order to analyse the synergic neurotrophic effect of N-[2-(5-methoxy-indol-3-yl)-ethyl]-comanilamide with the growth factor.
After 5 days of culture in presence of N-[2-(5-methoxy-indol-3-yl)-ethyl]-comanilamide and reference, cells were fixed by a cool solution of ethanol (95%) and acetic acid (5%) for 10 min. After permeabilization with 0.1% of saponin, cells were incubated with monoclonal antibody anti microtubule associated protein 2 (MAP-2; Sigma). This antibody stains specifically cell bodies and neurite of neurons. […] Nuclei of neurons were labeled by a fluorescent marker (Hoechst solution, SIGMA). Per well, 20 pictures were taken using InCell Analyzer™ 1000 (GE Healthcare) with 20× magnification. All images were done in the same conditions. Analysis of the neuritis networks and neuron were assessed using Developer software (GE Healthcare). […]

[4] = saline mice, 100 or 200 mg/kg i.p., both p>0.05
[5] = MPTP mice, 100 or 200 mg/kg/day i.p.

## COc1ccc2[nH]cc(CCNC(=O)c3cc(=O)cco3)c2c1 [N-[2-(5-methoxy-indol-3-yl)-ethyl]-comanilamide]
C57BL/6 mice [1]; 100 mg/kg i.p., p<0.05
  T-turn, pole test, vs MPTP mice: showed less level of the T-turn
C57BL/6 mice [1]; 200 mg/kg i.p., p>0.05
  T-turn, pole test, vs MPTP mice: no significant difference in the T-turn
C57BL/6 mice [1]; [4]
  T-turn, pole test, vs control mice: no significant difference in the T-turn
C57BL/6 mice [2]; MPTP mice, 100 or 200 mg/kg i.p., p<0.01 and p<0.05, respectively
  striatal dopamine level vs MPTP mice: showed more level of dopamine concentration
C57BL/6 mice [2]; [5]
  striatal DOPAC level: ameliorated the MPTP-induced reductions
  striatal HVA level: ameliorated the MPTP-induced reductions
C57BL/6 mice [2]; [4]
  striatal dopamine level vs control mice: no significant difference in dopamine level
[3]; 100 nM alone in the culture medium, without BDNF
  neurotrophic effect, compound alone: no neurotrophic effect
[3]; Rattus norvegicus, Primary cortical neuron, 120 h, 100 nM + BDNF 0.5 ng/ml, 5 days of culture, read-out: neurite length, % of control
  activity at 0.1 µM: ~145%
